Patent US10744171B2, “Sequential anti-cancer treatment” (Duke University, priority 2016, dated 2020)

Test system: recurrent glioblastoma (WHO grade IV)
Conditions: human, in vivo

## O=NN(CCCl)C(=O)NC1CCCCC1 [lomustine]
  clinical and imaging response after one cycle: significant clinical and imaging response
  imaging and clinical response after first six weeks of therapy (one cycle), both of two patients: significant imaging and clinical improvement
  response on brain scans after chemotherapy was added to Avastin: Response
  time disease free (complete tumor disappearance) post PVSRIPO infusion: > 32 months
